In ChEMBL document CHEMBL1146272, “Isoindolone derivatives, a new class of 5-HT2C antagonists: synthesis and biological evaluation” (Bioorg Med Chem Lett, 2007):
The source made the active and inactive calls. The calls are words filed in the database; no cut-off is given here.

Biological target: T1, 5-hydroxytryptamine receptor 2C (Homo sapiens, UniProt P28335)
T1 sequence (P28335 whole entry): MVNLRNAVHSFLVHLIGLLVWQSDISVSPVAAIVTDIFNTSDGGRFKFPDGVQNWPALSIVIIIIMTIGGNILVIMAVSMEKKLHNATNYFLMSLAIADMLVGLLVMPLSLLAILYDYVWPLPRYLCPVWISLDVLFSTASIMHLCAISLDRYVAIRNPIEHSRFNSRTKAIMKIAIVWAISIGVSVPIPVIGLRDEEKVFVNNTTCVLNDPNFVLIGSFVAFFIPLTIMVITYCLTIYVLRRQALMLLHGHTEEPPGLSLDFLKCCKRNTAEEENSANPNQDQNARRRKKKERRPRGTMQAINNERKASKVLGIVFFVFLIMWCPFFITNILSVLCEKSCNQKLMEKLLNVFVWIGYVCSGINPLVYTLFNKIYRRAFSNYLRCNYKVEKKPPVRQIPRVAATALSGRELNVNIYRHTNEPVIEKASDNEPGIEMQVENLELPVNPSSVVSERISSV
Test: Displacement of [3H]mesulergine from 5HT2C receptor expressed in HEK293 cells
Type: cell-based
Conditions: not given

Structure (SMILES) | Ki [nM]
COc1ccc(N2Cc3ccc(Cl)cc3C2=O)cc1OCCN1CCC(C)CC1 | 20
COc1ccc(N2Cc3cc(Cl)ccc3C2=O)cc1OCCN1CCCCC1 | 50.1
COc1ccc(N2Cc3cc(Cl)c(Cl)cc3C2=O)cc1OCCN1CCC(C)CC1 | 5.01
COc1ccc(N2Cc3cc(Cl)cc(Cl)c3C2=O)cc1OCCN1CCCC(C)C1 (centres undefined) | 2.51
COc1ccc(N2Cc3cccc(F)c3C2=O)cc1OCCN1CCCCC1 | 79.4
COc1ccc(N2Cc3c(Cl)cccc3C2=O)cc1OCCN1CCC(C)CC1 | 126

Further lines, results first:

Ki [nM] | Structure (SMILES)
2.51 | COc1ccc(N2Cc3cc(Cl)c(Cl)c(C)c3C2=O)cc1OCCN1CCC(C)CC1
1.26 | COc1ccc(N2Cc3cc(Cl)c(C)c(Cl)c3C2=O)cc1OCCN1CCC(C)CC1
1.58 | COc1ccc(N2Cc3cccc(C(F)(F)F)c3C2=O)cc1OCCN1CCC(C)CC1

Biological target: T2, 5-hydroxytryptamine receptor 2A (Homo sapiens, UniProt P28223)
T2 sequence (P28223 whole entry): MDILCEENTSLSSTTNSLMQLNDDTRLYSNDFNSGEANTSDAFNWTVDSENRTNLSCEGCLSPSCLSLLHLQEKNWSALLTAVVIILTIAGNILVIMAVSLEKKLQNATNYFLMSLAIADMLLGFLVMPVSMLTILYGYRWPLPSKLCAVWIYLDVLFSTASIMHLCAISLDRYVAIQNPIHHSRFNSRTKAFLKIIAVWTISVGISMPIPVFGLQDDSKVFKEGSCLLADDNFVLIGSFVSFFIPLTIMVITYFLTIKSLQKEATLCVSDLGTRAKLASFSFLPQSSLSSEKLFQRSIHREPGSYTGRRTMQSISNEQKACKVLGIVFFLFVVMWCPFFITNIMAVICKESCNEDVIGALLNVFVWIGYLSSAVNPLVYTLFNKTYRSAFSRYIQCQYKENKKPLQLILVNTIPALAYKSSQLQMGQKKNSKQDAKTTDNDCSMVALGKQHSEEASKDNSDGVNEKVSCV
Test: Displacement of [3H]ketanserin from 5HT2A receptor expressed in HEK293 cells
Type: cell-based
Conditions: not given

Structure (SMILES) | Ki [nM]
COc1ccc(N2Cc3ccc(Cl)cc3C2=O)cc1OCCN1CCC(C)CC1 | 794
COc1ccc(N2Cc3cc(Cl)ccc3C2=O)cc1OCCN1CCCCC1 | > 6310
COc1ccc(N2Cc3cc(Cl)c(Cl)cc3C2=O)cc1OCCN1CCC(C)CC1 | 501
COc1ccc(N2Cc3cc(Cl)cc(Cl)c3C2=O)cc1OCCN1CCCC(C)C1 (centres undefined) | > 1260
COc1ccc(N2Cc3cccc(F)c3C2=O)cc1OCCN1CCCCC1 | > 10000
COc1ccc(N2Cc3c(Cl)cccc3C2=O)cc1OCCN1CCC(C)CC1 | > 1580

Second part, the molecule after the results:

Ki [nM] | Structure (SMILES)
398 | COc1ccc(N2Cc3cc(Cl)c(Cl)c(C)c3C2=O)cc1OCCN1CCC(C)CC1
631 | COc1ccc(N2Cc3cc(Cl)c(C)c(Cl)c3C2=O)cc1OCCN1CCC(C)CC1
631 | COc1ccc(N2Cc3cccc(C(F)(F)F)c3C2=O)cc1OCCN1CCC(C)CC1

Biological target: T3, 5-hydroxytryptamine receptor 2B (Homo sapiens, UniProt P41595)
T3 sequence (P41595 whole entry): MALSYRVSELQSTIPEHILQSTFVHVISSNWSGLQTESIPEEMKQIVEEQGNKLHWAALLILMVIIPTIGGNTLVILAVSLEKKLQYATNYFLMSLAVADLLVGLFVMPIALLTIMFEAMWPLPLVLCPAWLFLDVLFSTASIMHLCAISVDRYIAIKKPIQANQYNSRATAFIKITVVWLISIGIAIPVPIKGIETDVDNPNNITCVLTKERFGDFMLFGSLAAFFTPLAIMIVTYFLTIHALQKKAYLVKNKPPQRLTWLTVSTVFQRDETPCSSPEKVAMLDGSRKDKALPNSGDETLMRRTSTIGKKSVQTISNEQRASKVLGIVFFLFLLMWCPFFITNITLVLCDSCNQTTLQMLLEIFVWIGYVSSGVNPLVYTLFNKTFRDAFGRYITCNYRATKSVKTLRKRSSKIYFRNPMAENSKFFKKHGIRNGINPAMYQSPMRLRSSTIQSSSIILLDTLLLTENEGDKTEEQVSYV
Test: Displacement of [3H]5-HT from 5HT2B receptor expressed in HEK293 cells
Type: cell-based
Conditions: not given

Structure (SMILES) | Ki [nM]
COc1ccc(N2Cc3ccc(Cl)cc3C2=O)cc1OCCN1CCC(C)CC1 | > 1000
COc1ccc(N2Cc3cc(Cl)ccc3C2=O)cc1OCCN1CCCCC1 | > 10000
COc1ccc(N2Cc3cc(Cl)c(Cl)cc3C2=O)cc1OCCN1CCC(C)CC1 | 200
COc1ccc(N2Cc3cc(Cl)cc(Cl)c3C2=O)cc1OCCN1CCCC(C)C1 (centres undefined) | 126
COc1ccc(N2Cc3cccc(F)c3C2=O)cc1OCCN1CCCCC1 | > 3160

Other lines, results leading:

Ki [nM] | Structure (SMILES)
100 | COc1ccc(N2Cc3cc(Cl)c(Cl)c(C)c3C2=O)cc1OCCN1CCC(C)CC1
63.1 | COc1ccc(N2Cc3cc(Cl)c(C)c(Cl)c3C2=O)cc1OCCN1CCC(C)CC1
501 | COc1ccc(N2Cc3cccc(C(F)(F)F)c3C2=O)cc1OCCN1CCC(C)CC1

Same assay, conditions: hek293

Log Ki | Structure (SMILES)
> -6.7 | COc1ccc(N2Cc3c(Cl)cccc3C2=O)cc1OCCN1CCC(C)CC1

System: not listed separately
Test: Blood clearance in iv dosed rat
Type: ADME, organism-based
Conditions: whole blood

clearance [mL/min/kg] | Structure (SMILES)
16 | COc1ccc(N2Cc3cc(Cl)c(Cl)c(C)c3C2=O)cc1OCCN1CCC(C)CC1
16 | COc1ccc(N2Cc3cc(Cl)c(Cl)cc3C2=O)cc1OCCN1CCC(C)CC1
43 | COc1ccc(N2Cc3cc(Cl)c(C)c(Cl)c3C2=O)cc1OCCN1CCC(C)CC1

System: not listed separately
Test: Volume of distribution in iv dosed rat
Type: ADME, organism-based
Conditions: in vivo, read-out: Vdss

Vd [L/kg] | Structure (SMILES)
6.8 | COc1ccc(N2Cc3cc(Cl)c(Cl)c(C)c3C2=O)cc1OCCN1CCC(C)CC1
8.5 | COc1ccc(N2Cc3cc(Cl)c(Cl)cc3C2=O)cc1OCCN1CCC(C)CC1
9.1 | COc1ccc(N2Cc3cc(Cl)c(C)c(Cl)c3C2=O)cc1OCCN1CCC(C)CC1

System: not listed separately
Test: Oral bioavailability in po dosed rat
Type: ADME, organism-based
Conditions: in vivo

bioavailability [%] | Structure (SMILES)
43 | COc1ccc(N2Cc3cc(Cl)c(Cl)c(C)c3C2=O)cc1OCCN1CCC(C)CC1
22 | COc1ccc(N2Cc3cc(Cl)c(Cl)cc3C2=O)cc1OCCN1CCC(C)CC1
24 | COc1ccc(N2Cc3cc(Cl)c(C)c(Cl)c3C2=O)cc1OCCN1CCC(C)CC1

Biological target: T4, 5-hydroxytryptamine receptor 2C (Homo sapiens) (UniProt P28335)
T4 sequence (whole entry): T1 sequence (P28335 whole entry)
Test: Agonist activity at 5HT2C receptor expressed in HEK293 cells assessed as intracellular calcium mobilisation up to 10 uM
Type: functional, cell-based
Conditions: not given

Structure (SMILES) | Activity
COc1ccc(N2Cc3ccc(Cl)cc3C2=O)cc1OCCN1CCC(C)CC1 | inactive
COc1ccc(N2Cc3cc(Cl)ccc3C2=O)cc1OCCN1CCCCC1 | inactive
COc1ccc(N2Cc3cc(Cl)c(Cl)cc3C2=O)cc1OCCN1CCC(C)CC1 | inactive
COc1ccc(N2Cc3cc(Cl)cc(Cl)c3C2=O)cc1OCCN1CCCC(C)C1 (centres undefined) | inactive
COc1ccc(N2Cc3cccc(F)c3C2=O)cc1OCCN1CCCCC1 | inactive
COc1ccc(N2Cc3c(Cl)cccc3C2=O)cc1OCCN1CCC(C)CC1 | inactive

Now from value to molecule:

Activity | Structure (SMILES)
inactive | COc1ccc(N2Cc3cc(Cl)c(Cl)c(C)c3C2=O)cc1OCCN1CCC(C)CC1
inactive | COc1ccc(N2Cc3cc(Cl)c(C)c(Cl)c3C2=O)cc1OCCN1CCC(C)CC1
inactive | COc1ccc(N2Cc3cccc(C(F)(F)F)c3C2=O)cc1OCCN1CCC(C)CC1

Biological target: T2, 5-hydroxytryptamine receptor 2A
Test: Agonist activity at 5HT2A receptor expressed in HEK293 cells assessed as intracellular calcium mobilisation up to 10 uM
Type: functional, cell-based
Conditions: not given

Structure (SMILES) | Activity
COc1ccc(N2Cc3ccc(Cl)cc3C2=O)cc1OCCN1CCC(C)CC1 | inactive
COc1ccc(N2Cc3cc(Cl)ccc3C2=O)cc1OCCN1CCCCC1 | inactive
COc1ccc(N2Cc3cc(Cl)c(Cl)cc3C2=O)cc1OCCN1CCC(C)CC1 | inactive
COc1ccc(N2Cc3cc(Cl)cc(Cl)c3C2=O)cc1OCCN1CCCC(C)C1 (centres undefined) | inactive
COc1ccc(N2Cc3cccc(F)c3C2=O)cc1OCCN1CCCCC1 | inactive
COc1ccc(N2Cc3c(Cl)cccc3C2=O)cc1OCCN1CCC(C)CC1 | inactive

Continued, values first:

Activity | Structure (SMILES)
inactive | COc1ccc(N2Cc3cc(Cl)c(Cl)c(C)c3C2=O)cc1OCCN1CCC(C)CC1
inactive | COc1ccc(N2Cc3cc(Cl)c(C)c(Cl)c3C2=O)cc1OCCN1CCC(C)CC1
inactive | COc1ccc(N2Cc3cccc(C(F)(F)F)c3C2=O)cc1OCCN1CCC(C)CC1

Biological target: T3, 5-hydroxytryptamine receptor 2B
Test: Agonist activity at 5HT2B receptor expressed in HEK293 cells assessed as intracellular calcium mobilisation up to 10 uM
Type: functional, cell-based
Conditions: not given

Structure (SMILES) | Activity
COc1ccc(N2Cc3ccc(Cl)cc3C2=O)cc1OCCN1CCC(C)CC1 | inactive
COc1ccc(N2Cc3cc(Cl)ccc3C2=O)cc1OCCN1CCCCC1 | inactive
COc1ccc(N2Cc3cc(Cl)c(Cl)cc3C2=O)cc1OCCN1CCC(C)CC1 | inactive
COc1ccc(N2Cc3cc(Cl)cc(Cl)c3C2=O)cc1OCCN1CCCC(C)C1 (centres undefined) | inactive
COc1ccc(N2Cc3cccc(F)c3C2=O)cc1OCCN1CCCCC1 | inactive
COc1ccc(N2Cc3c(Cl)cccc3C2=O)cc1OCCN1CCC(C)CC1 | inactive

More lines, now with the values ahead:

Activity | Structure (SMILES)
inactive | COc1ccc(N2Cc3cc(Cl)c(Cl)c(C)c3C2=O)cc1OCCN1CCC(C)CC1
inactive | COc1ccc(N2Cc3cc(Cl)c(C)c(Cl)c3C2=O)cc1OCCN1CCC(C)CC1
inactive | COc1ccc(N2Cc3cccc(C(F)(F)F)c3C2=O)cc1OCCN1CCC(C)CC1

Biological target: T4, 5-hydroxytryptamine receptor 2C (Homo sapiens)
Test: Antagonist activity at 5HT2C receptor expressed in HEK293 cells assessed as blockade of 5-hydroxytryptamine-induced intracellular calcium mobilisation
Type: functional, cell-based
Conditions: not given

pKb | Structure (SMILES)
6.9 | COc1ccc(N2Cc3cc(Cl)ccc3C2=O)cc1OCCN1CCCCC1
